Assay results as given in patent US9884063B2, “Amido-substituted azole compounds” (Bayer Pharma Aktiengesellschaft, priority 2014, dated 2018).
pIC50: −log10 of the molar value.

Target: T1, TNKS2 (Homo sapiens, UniProt Q9H2K2)
T1 sequence (Q9H2K2 1-1166): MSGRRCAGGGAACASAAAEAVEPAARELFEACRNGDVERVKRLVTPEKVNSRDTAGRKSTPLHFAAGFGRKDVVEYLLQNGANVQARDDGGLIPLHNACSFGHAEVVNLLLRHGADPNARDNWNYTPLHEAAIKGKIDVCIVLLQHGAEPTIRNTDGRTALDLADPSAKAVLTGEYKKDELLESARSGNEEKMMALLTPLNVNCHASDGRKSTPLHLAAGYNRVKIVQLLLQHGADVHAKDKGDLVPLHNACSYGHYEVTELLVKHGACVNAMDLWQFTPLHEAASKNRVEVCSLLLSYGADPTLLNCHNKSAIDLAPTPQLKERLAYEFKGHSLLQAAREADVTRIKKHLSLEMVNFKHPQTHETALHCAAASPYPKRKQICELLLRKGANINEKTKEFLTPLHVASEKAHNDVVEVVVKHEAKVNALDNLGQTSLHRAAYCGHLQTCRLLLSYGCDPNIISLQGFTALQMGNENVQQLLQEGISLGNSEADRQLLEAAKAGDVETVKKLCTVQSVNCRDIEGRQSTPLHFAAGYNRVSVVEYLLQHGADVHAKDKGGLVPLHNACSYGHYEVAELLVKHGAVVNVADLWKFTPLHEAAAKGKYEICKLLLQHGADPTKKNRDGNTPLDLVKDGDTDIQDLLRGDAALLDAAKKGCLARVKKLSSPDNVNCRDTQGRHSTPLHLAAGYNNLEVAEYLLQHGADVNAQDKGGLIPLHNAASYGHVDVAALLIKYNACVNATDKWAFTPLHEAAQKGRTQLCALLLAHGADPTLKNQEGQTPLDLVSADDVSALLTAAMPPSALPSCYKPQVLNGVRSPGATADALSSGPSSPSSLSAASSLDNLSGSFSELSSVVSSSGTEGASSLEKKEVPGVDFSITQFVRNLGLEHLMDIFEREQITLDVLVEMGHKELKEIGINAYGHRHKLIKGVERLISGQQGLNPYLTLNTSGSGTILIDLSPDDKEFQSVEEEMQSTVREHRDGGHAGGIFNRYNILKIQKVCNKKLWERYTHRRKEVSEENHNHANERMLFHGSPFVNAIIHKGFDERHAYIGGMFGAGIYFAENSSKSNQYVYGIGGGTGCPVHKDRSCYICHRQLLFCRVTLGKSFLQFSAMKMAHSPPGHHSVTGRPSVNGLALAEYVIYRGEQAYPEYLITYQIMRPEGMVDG
Assay: TNKS2 Assay 1 (TNKS2 Histone Ribosylation Assay Kit, biotin-labeled NAD+)
Type: biochemical
Details: chemiluminescent readout, 384 well
Protocol: The potency of the compounds according to the invention was assessed applying an in vitro inhibition assay. The TNKS2 catalyzed NAD^+-dependent ribosylation of a suitable protein substrate was detected using a commercially available biotin/streptavidin binding based assay format [TNKS2 Histone Ribosylation Assay Kit (Biotin-labeled NAD+), Catalog #80572; BPS Bioscience, San Diego, USA]. Here, the incorporation of a biotin-labeled NAD+ during the TNKS2 catalyzed ribosylation reaction was detected with a streptavidin-HRP coupled chemi-luminescent readout. The intensity of the readout signal is proportional to the incorporated NAD^+. Inhibition of TNKS2 leads to a decreased incorporation of NAD^+ and consequently to a lower readout signal intensity. The concentration of a test compound which inhibits the enzyme activity by 50% (corresponds to half of the normed readout signal intensity) is reported as IC50.
The assay was conducted in a 384 well MTP format according to the manufacturer's protocol [bpsbioscience.com/poly-adp-ribose-polymerase/assay-kit/tnks2-histone-ribosylation-assay-kit-biotin-labeled-nad-80572 referencing: Brown, J. A., Marala, R. B. J. Pharmacol. Toxicol. Methods 2002 47:137-41]. and using a BMG Pherastar MTP reader [BMG-Labtech, Offenburg, Germany].

Compound	pIC50 (Table 2)	pIC50 (first table)
CNC(=O)c1nc[nH]c1C(=O)Nc1ccc(NC(=O)c2ccccc2C)cc1 [Example 19, N^4-methyl-N^5-{4-[(2-methylbenzoyl)amino]phenyl}-1H-imidazole-4,5-dicarboxamide]	6.54	6.54
CNC(=O)c1nc[nH]c1C(=O)Nc1ccc(NC(=O)c2ccc(OCCN3CCN(C)CC3)cc2Cl)cc1 [Example 28, N^5-[4-({2-chloro-4-[2-(4-methylpiperazin-1-yl)ethoxy]benzoyl}amino)phenyl]-N^4-methyl-1H-imidazole-4,5-dicarboxamide]	7.22	7.22
CNC(=O)c1nc[nH]c1C(=O)Nc1ccc(NC(=O)c2ccc(F)cc2Cl)c(C)c1 [Example 5, N^5-{4-[(2-chloro-4-fluorobenzoyl)amino]-3-methylphenyl}-N^4-methyl-1H-imidazole-4,5-dicarboxamide]	6.33	6.33
CNC(=O)c1nc[nH]c1C(=O)Nc1ccc(NC(=O)c2ccc(F)cc2Cl)nc1 [Example 16, N^5-{6-[(2-chloro-4-fluorobenzoyl)amino]pyridin-3-yl}-N^4-methyl-1H-imidazole-4,5-dicarboxamide]	7.40	7.40
CNC(=O)c1nc[nH]c1C(=O)Nc1ccc(NC(=O)c2cccc(Cl)c2Cl)cc1 [Example 1, N^5-{4-[(2,3-dichlorobenzoyl)amino]phenyl}-N^4-methyl-1H-imidazole-4,5-dicarboxamide]	7.70	7.70
CNC(=O)c1nc[nH]c1C(=O)Nc1ccc(NC(=O)c2ccc(N3CCCC3)cc2F)cc1 [Example 3, N^5-(4-{[2-fluoro-4-(pyrrolidin-1-yl)benzoyl]amino}phenyl)-N^4-methyl-1H-imidazole-4,5-dicarboxamide]	4.52	–
CNC(=O)c1[nH]cnc1C(=O)Nc1ccc(NC(=O)c2cc(Cl)sc2Cl)cc1 [Example 213, N^4-(4-{[(2,5-dichloro-3-thienyl)carbonyl]amino}phenyl)-N^5-methyl-1H-imidazole-4,5-dicarboxamide]	< 4.00	–
CNC(=O)c1nc[nH]c1C(=O)Nc1ccc(NC(=O)c2c(-c3ccccc3)nn(C)c2Cl)cc1 [Example 17, N^5-(4-{[(5-chloro-1-methyl-3-phenyl-1H-pyrazol-4-yl)carbonyl]amino}phenyl)-N^4-methyl-1H-imidazole-4,5-dicarboxamide]	5.66	5.66
CNC(=O)c1nc[nH]c1C(=O)Nc1ccc(NC(=O)c2ccc(F)cc2)cc1 [Example 20, N^5-{4-[(4-fluorobenzoyl)amino]phenyl}-N^4-methyl-1H-imidazole-4,5-dicarboxamide]	5.77	5.77
CNC(=O)c1nc[nH]c1C(=O)Nc1ccc(NC(=O)c2c(Cl)cccc2Cl)cc1 [Example 26, N^5-{4-[(2,6-dichlorobenzoyl)amino]phenyl}-N^4-methyl-1H-imidazole-4,5-dicarboxamide]	6.80	6.80
CNC(=O)c1nc[nH]c1C(=O)Nc1ccc(NC(=O)c2c(C)cc(F)cc2C)cc1 [Example 23, N^5-{4-[(4-fluoro-2,6-dimethylbenzoyl)amino]phenyl}-N^4-methyl-1H-imidazole-4,5-dicarboxamide]	6.47	6.47

Other lines, results leading:

pIC50 (Table 2)	pIC50 (first table)	Compound
7.52	7.70	CNC(=O)c1nc[nH]c1C(=O)Nc1ccc(NC(=O)c2ccc(Cl)cc2Cl)cc1 [Example 9, N^5-{4-[(2,4-dichlorobenzoyl)amino]phenyl}-N^4-methyl-1H-imidazole-4,5-dicarboxamide]
6.07	6.07	O=C(Nc1ccc(NC(=O)c2[nH]cnc2C(=O)NCc2ccccc2)cc1)c1ccc(F)cc1Cl [Example 18, N^4-benzyl-N^5-{4-[(2-chloro-4-fluorobenzoyl)amino]phenyl}-1H-imidazole-4,5-dicarboxamide]
5.15	5.15	CC(NC(=O)c1ncoc1C(=O)Nc1ccc(NC(=O)c2ccc(F)cc2Cl)cc1)c1ccccc1 (centres unmarked) [Example 8, N^5-{4-[(2-chloro-4-fluorobenzoyl)amino]phenyl}-N^4-(1-phenylethyl)-1,3-oxazole-4,5-dicarboxamide]
7.40	7.40	CNC(=O)c1nc[nH]c1C(=O)Nc1ccc(NC(=O)c2ccccc2Cl)cc1 [Example 27, N^5-{4-[(2-chlorobenzoyl)amino]phenyl}-N^4-methyl-1H-imidazole-4,5-dicarboxamide]
7.70	7.70	CNC(=O)c1nc[nH]c1C(=O)Nc1ccc(NC(=O)c2ccc(F)cc2Cl)cc1 [Example 12, N^5-{4-[(2-chloro-4-fluorobenzoyl)amino]phenyl}-N^4-methyl-1H-imidazole-4,5-dicarboxamide]
6.64	6.64	CC(C)NC(=O)c1nc[nH]c1C(=O)Nc1ccc(NC(=O)c2ccc(F)cc2Cl)cc1 [Example 10, N^5-{4-[(2-chloro-4-fluorobenzoyl)amino]phenyl}-N^4-isopropyl-1H-imidazole-4,5-dicarboxamide]
7.30	7.30	CNC(=O)c1nc[nH]c1C(=O)Nc1ccc(NC(=O)c2ccncc2Cl)cc1 [Example 6, N^5-{4-[(3-chloroisonicotinoyl)amino]phenyl}-N^4-methyl-1H-imidazole-4,5-dicarboxamide]
7.05	7.05	CNC(=O)c1nc[nH]c1C(=O)Nc1ccc(NC(=O)c2ccc(N(C)C)cc2Cl)cc1 [Example 4, N^5-(4-{[2-chloro-4-(dimethylamino)benzoyl]amino}phenyl)-N^4-methyl-1H-imidazole-4,5-dicarboxamide]
4.72	4.72	CCC(C)NC(=O)c1ncoc1C(=O)Nc1ccc(NC(=O)c2ccc(F)cc2Cl)cc1 (centres unmarked) [Example 7, N^4-sec-butyl-N^5-{4-[(2-chloro-4-fluorobenzoyl)amino]phenyl}-1,3-oxazole-4,5-dicarboxamide]
6.52	6.52	COC(=O)c1ncoc1C(=O)Nc1ccc(NC(=O)c2ccc(F)cc2Cl)cc1 [Example 14, Methyl 5-({4-[(2-chloro-4-fluorobenzoyl)amino]phenyl}carbamoyl)-1,3-oxazole-4-carboxylate]
5.96	5.94	CC(C)NC(=O)c1ncoc1C(=O)Nc1ccc(NC(=O)c2ccc(F)cc2Cl)cc1 [Example 15, N^5-{4-[(2-chloro-4-fluorobenzoyl)amino]phenyl}-N^4-isopropyl-1,3-oxazole-4,5-dicarboxamide]
6.30	6.30	CN(C)C(=O)c1nc[nH]c1C(=O)Nc1ccc(NC(=O)c2ccc(F)cc2Cl)cc1 [Example 24, N^5-{4-[(2-chloro-4-fluorobenzoyl)amino]phenyl}-N^4,N^4-dimethyl-1H-imidazole-4,5-dicarboxamide]
7.05	6.92	CNC(=O)c1ncoc1C(=O)Nc1ccc(NC(=O)c2ccc(F)cc2Cl)cc1 [Example 11, N^5-{4-[(2-chloro-4-fluorobenzoyl)amino]phenyl}-N^4-methyl-1,3-oxazole-4,5-dicarboxamide]
7.15	7.15	O=C(Nc1ccc(NC(=O)c2[nH]cnc2C(=O)NCC(F)(F)F)cc1)c1ccc(F)cc1Cl [Example 30, N^4-{4-[(2-chloro-4-fluorobenzoyl)amino]phenyl}-N^5-(2,2,2-trifluoroethyl)-1H-imidazole-4,5-dicarboxamide]
7.22	7.22	CNC(=O)c1nc[nH]c1C(=O)Nc1ccc(NC(=O)c2ccc(OCCN(C)C)cc2Cl)cc1 [Example 25, N^5-[4-({2-chloro-4-[2-(dimethylamino)ethoxy]benzoyl}amino)phenyl]-N^4-methyl-1H-imidazole-4,5-dicarboxamide]
